Measurements reported in patent US11261183B2, “Sulfoximine glycosidase inhibitors” (Asceneuron SA, priority 2016, dated 2022).

Key:
[1] = target: Human O-GlcNAcase (His-Tagged hOGA) (Homo sapiens (Human), UniProt O60502); assay: Human O-GlcNAcase enzyme inhibition assay; type: biochemical; conditions: His-Tagged hOGA 20 nM, FL-GlcNAc 10 μM, 60 min, room temperature, pH 6.5; read-out: Enzymatic OGA IC50
Protocol: Example B01: Human O-GlcNAcase enzyme inhibition assay
5 μl of the appropriate concentration of a solution of inhibitor in McIlvaine's Buffer (pH 6.5) in 2% DMSO (for a dose response curve calculation) is added into each well of a 384-well plate (Greiner, 781900). Then, 20 nM of His-Tagged hOGA and 10 μM of FL-GlcNAc (Fluorescein mono-beta-D-(2-deoxy-2-N-acetyl) glucopyranoside; Marker Gene Technologies Inc, M1485) were added to the 384-well plate for a final volume of 20 μl. After incubation for 60 min at room temperature, the reaction was terminated by the addition of 10 μL of stop buffer (200 mM glycine, pH 10.75).

[2] = Protein binding in mice plasma using Rapid Equilibrium Dialysis; type: in vitro ADME, CD1 mice; conditions: 37° C.; for fraction unbound at 5 h, 1 µM: male, CD1, mouse, plasma, pH 7.4, CD1 mouse plasma
Protocol: Example B04: Protein binding in mice plasma using Rapid Equilibrium Dialysis
• CD1 Mice Plasma: pooled male, K2-EDTA ([…]2, Bioreclammation, USA • Phosphate Buffered Saline (1×PBS), pH 7.4, 100 mM (Sigma, Cat No. P4417) • RED inserts (Pierce, Cat No. 9006, 8 kDa MWCO) • Sample Analysis: LC-MS/MS Methods • Preparation of DMSO Stock Solution
From 20 mM DMSO stock solutions of reference and test compounds, 1 mM DMSO intermediate working solutions are prepared. From 1 mM intermediate working solutions, 100 μM DMSO working solutions are prepared. • Sample Preparation Procedure:
Selected plasma is brought from −20° C. to 37° C. using water bath before its use. Test solution is prepared by adding the DMSO working solution of the reference or test compound (2 μL; 100 μM) to the selected plasma (198 μL). Spiked plasma (200 μl) is transferred to sample compartment of RED insert placed in the teflon plate. 350 μl of 1×PBS is added in the buffer compartment of RED insert. The teflon plate is covered with sealing mat and agitated at 37° C. for 5 hours at 500 RPM in a Thermomixer. After incubation time, an aliquot of plasma (50 μl) from sample compartment is mixed with blank 1×PBS (50 μl). Similarly, an aliquot of buffer (50 μl) from buffer compartment is mixed with blank plasma (50 μl). Quenching solution (200 μL, acetonitrile containing internal standard tolbutamide (0.5 μg/mL)) is added and the resulting solutions are mixed using a vortex mixer and centrifuged (Eppendorf 5415, 13792 g). Supernatants are analyzed using a Mass Spectrometer. The sample (supernatant fraction, 5 μL) is injected into the LC-MS/MS instrument. • Chromatographic Conditions: LC-MS/MS: API 4000 LC-MS/MS Software: Analyst Version 1.6.1 Column Phenomenex Synergy 30*4.6*5μ Column Oven: 40° C. Mode: ESI Positive Injection volume: 5 μl Flow Rate: […] Buffer: 0.1% Formic acid in Water Method: Isocratic Method/Gradient Composition: A) 0.1% Formic acid in Water B) 0.1% Formic acid in Methanol
After the concentration of free drug and total drug has been determined by LCMS/MS, percent plasma protein binding can be calculated as follows:
[formula] Following this protocol, % fraction unbound in plasma from different species can be also measured.

Sequence of Human O-GlcNAcase (His-Tagged hOGA) (O60502 whole entry): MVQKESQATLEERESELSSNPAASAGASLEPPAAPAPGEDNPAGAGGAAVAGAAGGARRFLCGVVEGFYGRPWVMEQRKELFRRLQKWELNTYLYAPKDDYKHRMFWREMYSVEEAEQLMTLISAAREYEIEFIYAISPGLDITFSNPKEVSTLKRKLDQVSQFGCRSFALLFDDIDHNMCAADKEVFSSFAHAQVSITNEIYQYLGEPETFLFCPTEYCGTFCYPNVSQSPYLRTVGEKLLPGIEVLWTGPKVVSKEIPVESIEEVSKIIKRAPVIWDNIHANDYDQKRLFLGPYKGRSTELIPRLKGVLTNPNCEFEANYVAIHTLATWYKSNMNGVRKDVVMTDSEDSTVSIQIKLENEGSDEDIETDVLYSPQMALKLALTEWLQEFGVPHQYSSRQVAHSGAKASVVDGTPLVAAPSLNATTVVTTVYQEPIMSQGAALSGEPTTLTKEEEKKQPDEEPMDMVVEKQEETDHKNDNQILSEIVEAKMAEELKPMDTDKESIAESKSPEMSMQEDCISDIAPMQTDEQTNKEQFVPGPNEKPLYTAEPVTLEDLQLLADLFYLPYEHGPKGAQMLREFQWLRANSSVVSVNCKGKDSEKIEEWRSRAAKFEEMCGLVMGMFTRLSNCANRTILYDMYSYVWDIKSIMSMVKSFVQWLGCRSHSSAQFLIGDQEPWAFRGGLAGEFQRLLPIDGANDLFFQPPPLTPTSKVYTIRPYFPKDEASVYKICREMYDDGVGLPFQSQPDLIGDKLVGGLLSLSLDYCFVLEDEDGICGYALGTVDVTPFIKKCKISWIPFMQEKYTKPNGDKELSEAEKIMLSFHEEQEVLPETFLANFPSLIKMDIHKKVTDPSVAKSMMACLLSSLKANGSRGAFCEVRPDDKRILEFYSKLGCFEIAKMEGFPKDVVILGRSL

SMILES	IC50 [1] [nM]	fraction unbound at 5 h, 1 µM [2]	% fraction unbound in mouse plasma ([2]; CD1 mouse plasma, 5 hours) [%]
CC(c1ccc2c(c1)OCC2)N1CCN(c2ncc(C(=O)N=S(C)(C)=O)cn2)CC1 (racemic) [Example 10, 2-(4-(1-(2,3-dihydrobenzofuran-6-yl)ethyl)piperazin-1-yl)-N-(dimethyl(oxo)-λ^6-sulfanylidene)pyrimidine-5-carboxamide]	< 50	0.139	
CC(c1ccc2scnc2c1)N1CCN(c2ncc(C(=O)N=S(C)(C)=O)cn2)CC1 (racemic) [Example 32, 2-(4-(1-(benzo[d]thiazol-5-yl)ethyl)piperazin-1-yl)-N-(dimethyl(oxo)-λ^6-sulfanylidene)pyrimidine-5-carboxamide]	< 50	0.0535	
CC(c1ccc2scnc2c1)N1CCN(c2ncc(S(C)(=N)=O)cn2)CC1 (single isomer, unassigned) [Example 36]	< 50		45.51
CC(c1ccc2scnc2c1)N1CCN(c2ncc(S(C)(=N)=O)cn2)CC1 (single isomer, unassigned) [Example 41]	1000 to 10000		
Cc1nc2cc(C(C)N3CCN(c4ncc(S(C)(=N)=O)cn4)CC3)ccc2s1 (racemic) [Example 42, Imino(methyl)(2-(4-(1-(2-methylbenzo[d]thiazol-5-yl)ethyl)piperazin-1-yl)pyrimidin-5-yl)-λ^6-sulfanone]	< 50	0.101	
Cc1nc2cc(C(C)N3CCN(c4ncc5c(n4)CCS(=N)(=O)C5)CC3)ccc2s1 (racemic) [Example 58, 6-imino-2-(4-(1-(2-methylbenzo[d]thiazol-5-yl)ethyl)piperazin-1-yl)-5,6,7,8-tetrahydro-6λ^4-thiopyrano[4,3-d]pyrimidine 6-oxide]	< 50		
CC(c1ccc2c(c1)OCC2)N1CCN(c2ncc3c(n2)CCS(=N)(=O)C3)CC1 (racemic) [Example 61, 2-(4-(1-(2,3-dihydrobenzofuran-6-yl)ethyl)piperazin-1-yl)-6-imino-5,6,7,8-tetrahydro-6λ^4-thiopyrano[4,3-d]pyrimidine 6-oxide]	< 50	0.113	
Cc1nc2cc(C(C)N3CCN(c4ncc(S(C)(=N)=O)cn4)CC3)ccc2s1 (single isomer, unassigned) [Example 51]	< 50	0.0838	
CC(c1ccc2c(c1)OCC2)N1CCN(c2ncc(S(C)(=N)=O)cn2)CC1 (single isomer, unassigned) [Example 15]	1000 to 10000		
COCCN=S(C)(=O)c1cnc(N2CCN(C(C)c3ccc4scnc4c3)CC2)nc1 (racemic) [Example 29, (2-(4-(1-(benzo[d]thiazol-5-yl)ethyl)piperazin-1-yl)pyrimidin-5-yl)((2-methoxyethyl)imino)(methyl)-λ^6-sulfanone]	< 50	0.286	
CCN=S(C)(=O)c1cnc(N2CCN(C(C)c3ccc4sc(C)nc4c3)CC2)nc1 (racemic) [Example 48, (ethylimino)(methyl)(2-(4-(1-(2-methylbenzo[d]thiazol-5-yl)ethyl)piperazin-1-yl)pyrimidin-5-yl)-λ^6-sulfanone]	< 50	0.0534	
Cc1nc2cc(C(C)N3CCN(c4ncc(S(C)(=N)=O)cn4)CC3)ccc2s1 (single isomer, unassigned) [Example 52]	200 to 1000		
CC1Cc2ccc(C(C)N3CCN(c4ncc(S(C)(=N)=O)cn4)CC3)cc2O1 (racemic) [Example 2, Imino(methyl)(2-(4-(1-(2-methyl-2,3-dihydrobenzofuran-6-yl)ethyl)piperazin-1-yl)pyrimidin-5-yl)-λ^6-sulfanone]		0.222	
CCN=S(C)(=O)c1cnc(N2CCN(C(C)c3ccc4c(c3)OCC4)CC2)nc1 (single isomer, unassigned) [Example 18]	< 50		
CC(c1ccc2c(c1)OCC2)N1CCN(c2ncc(S(C)(=N)=O)cn2)CC1 (single isomer, unassigned) [Example 13]	200 to 1000		
CN=S(C)(=O)c1ccc(N2CCN(C(C)c3ccc4scnc4c3)CC2)nc1 (racemic) [Example 30, (6-(4-(1-(benzo[d]thiazol-5-yl)ethyl)piperazin-1-yl)pyridin-3-yl)(methyl)(methylimino)-λ^6-sulfanone]	50 to 200		
Cc1nc2cc(C(C)N3CCN(c4ccc(S(C)(=N)=O)cc4)CC3)ccc2s1 (racemic) [Example 50, imino(methyl)(4-(4-(1-(2-methylbenzo[d]thiazol-5-yl)ethyl)piperazin-1-yl)phenyl)-λ^6-sulfanone]	< 50		
CC(c1ccc2nccnc2c1)N1CCN(c2ncc(S(C)(=N)=O)cn2)CC1 (racemic) [Example 57, imino(methyl)(2-(4-(1-(quinoxalin-6-yl)ethyl)piperazin-1-yl)pyrimidin-5-yl)-λ^6-sulfanone]	50 to 200		
CC(c1ccc2scnc2c1)N1CCN(c2ncc(S(C)(=N)=O)cn2)CC1 (single isomer, unassigned) [Example 38, (R)-(2-(4-(1-(benzo[d]thiazol-5-yl)ethyl)piperazin-1-yl)pyrimidin-5-yl)(imino)(methyl)-λ^6-sulfanone or (S)-(2-(4-(1-(benzo[d]thiazol-5-yl)ethyl)piperazin-1-yl)pyrimidin-5-yl)(imino)(methyl)-λ^6-sulfanone]	50 to 200		
CC(c1ccc2scnc2c1)N1CCN(c2ncc(S(C)(=N)=O)cn2)CC1 (single isomer, unassigned) [Example 39, (R)-(2-(4-(1-(benzo[d]thiazol-5-yl)ethyl)piperazin-1-yl)pyrimidin-5-yl)(imino)(methyl)-λ^6-sulfanone or (S)-(2-(4-(1-(benzo[d]thiazol-5-yl)ethyl)piperazin-1-yl)pyrimidin-5-yl)(imino)(methyl)-λ^6-sulfanone]	< 50		
CC(c1ccc2scnc2c1)N1CCN(c2ncc(S(C)(=N)=O)cn2)CC1 (single isomer, unassigned) [Example 40]	1000 to 10000		
CC(C)N=S(C)(=O)c1cnc(N2CCN(C(C)c3ccc4scnc4c3)CC2)nc1 (racemic) [Example 28, (2-(4-(1-(benzo[d]thiazol-5-yl)ethyl)piperazin-1-yl)pyrimidin-5-yl)(isopropylimino)(methyl)-λ^6-sulfanone]	50 to 200		
CCS(=N)(=O)c1cnc(N2CCN(C(C)c3ccc4sc(C)nc4c3)CC2)nc1 (racemic) [Example 43, ethyl(imino)(2-(4-(1-(2-methylbenzo[d]thiazol-5-yl)ethyl)piperazin-1-yl)pyrimidin-5-yl)-λ^6-sulfanone]	< 50		
CC(c1ccc2c(c1)OCC2)N1CCN(c2ncc(S(C)(=N)=O)cn2)CC1 (single isomer, unassigned) [Example 16, (2-(4-((S)-1-(2,3-dihydrobenzofuran-6-yl)ethyl)piperazin-1-yl)pyrimidin-5-yl)(imino)(methyl)-λ^6-sulfanone or (2-(4-((R)-1-(2,3-dihydrobenzofuran-6-yl)ethyl)piperazin-1-yl)pyrimidin-5-yl)(imino)(methyl)-λ^6-sulfanone]	< 50		
CCCS(=N)(=O)c1cnc(N2CCN(C(C)c3ccc4sc(C)nc4c3)CC2)nc1 (racemic) [Example 44, Imino(2-(4-(1-(2-methylbenzo[d]thiazol-5-yl)ethyl)piperazin-1-yl)pyrimidin-5-yl)(propyl)-λ^6-sulfanone]	< 50		
CC(C)N=S(C)(=O)c1cnc(N2CCN(C(C)c3ccc4c(c3)OCC4)CC2)nc1 (single isomer, unassigned) [Example 19]	< 50		
CC(c1ccc2c(c1)OCC2)N1CCN(c2ncnc3c2CS(=N)(=O)C3)CC1 (stereo not drawn) [Example 60, 4-(4-(1-(2,3-dihydrobenzofuran-6-yl)ethyl)piperazin-1-yl)-6-imino-6,7-dihydro-5H-6δ^4-thieno[3,4-d]pyrimidine 6-oxide]		0.0779	
Cc1nc2cc(C(C)N3CCN(c4ncc(S(C)(=N)=O)cn4)CC3)ccc2s1 (single isomer, unassigned) [Example 54]	1000 to 10000		
